Patent EP0038629A1, “Virazole derivatives, process for their preparation and use as antiviral agents” (priority 1980, dated 1981)

Columns and labels:
[1] = system: influenza A/Port Chalmers/1/73 (H3N2) virus; assay: Plaque reduction assay; format: cell-based; conditions: MDCK cells; for inhibition at 1.3 µM / inhibition at 4.1 µM / inhibition at 13 µM / inhibition at 41 µM / inhibition at 130 µM / inhibition at 410 µM: Influenza A virus, H3N2, read-out: % Plaque Reduction at Concentration Given
From the text: More accurate quantitation of antiviral activity was achieved by incorporated of concentrations of the test compound varying from 1.3 x 10^-6M to 4.1 x 10^-4M into the agar overlay above the influenza A/Port Chalmers/1/73 (H3N2) virus infected MDCK cell monolayers. The % reduction in the number of virus induced plaques at each compound concentration is given below.

MDCK cell monolayers = conditions: diameter of zone with apparent cytotoxicity; 0.02 ml of 1 mg/ml solution in 6 mm well
[2] = system: influenza A/Port Chalmers/l/73 (H3N2) virus; assay: Diffusion test (plaque inhibition zone); format: cell-based; conditions: diameter of plaque-free zone, 0.02 ml of 1 mg/ml solution in 6 mm well, infected MDCK cell monolayers; for zone of inhibition at 1000 µg/mL: Influenza A virus, H3N2, read-out: Active Zone
Method: Diffusion Test. 10 mg/ml solutions of the compounds in water were diluted to a concentration of 1 mg/ml with Eagle's minimum essential medium and 0.02 ml introduced into wells 6mm in diameter cut into an agar layer above influenza A/Port Chalmers/l/73 (H3N2) virus infected MDCK cell monolayers. An infection level giving an even distribution of subconfluent plaques was used. The diameters of zones around the wells free from virus induced plaques (inhibition zones) and diameters of zones in which cytotoxicity was apparent are reported.

| Molecule | % Plaque Reduction at Concentration Given ([1]; 0.13 x 10^-5 M in agar overlay, 1.3 µM) [%] | % Plaque Reduction at Concentration Given ([1]; 0.41 x 10^-5 M in agar overlay, 4.1 µM) [%] | % Plaque Reduction at Concentration Given ([1]; 1.3 x 10^-5 M in agar overlay, 13 µM) [%] | % Plaque Reduction at Concentration Given ([1]; 4.1 x 10^-5 M in agar overlay, 41 µM) [%] | % Plaque Reduction at Concentration Given ([1]; 13 x 10^-5 M in agar overlay, 130 µM) [%] | % Plaque Reduction at Concentration Given ([1]; 41 x 10^-5 M in agar overlay, 410 µM) [%] | Toxic Zone (MDCK cell monolayers) [mm] | Active Zone [2] [mm] | inhibition at 1.3 µM ([1]; 0.13 x 10^-5 M in agar overlay) [%] | inhibition at 4.1 µM ([1]; 0.41 x 10^-5 M in agar overlay) [%] | inhibition at 13 µM ([1]; 1.3 x 10^-5 M in agar overlay) [%] | inhibition at 41 µM ([1]; 4.1 x 10^-5 M in agar overlay) [%] | inhibition at 130 µM ([1]; 13 x 10^-5 M in agar overlay) [%] | inhibition at 410 µM ([1]; 41 x 10^-5 M in agar overlay) [%] | zone of inhibition at 1000 µg/mL [2] [mm] |
| --- | --- | --- | --- | --- | --- | --- | --- | --- | --- | --- | --- | --- | --- | --- | --- |
| 1-[β-D-(5'-succinyl-2',3'-carbonyl)ribofuranosyl]-3-carbamoyl-1,2,4-triazole amantadine salt [Compound 6] | 44 | 63 | 89 | 100 | 100 | 100 | 0 | 55 | – | – | – | – | – | – | – |
| NC(=O)c1ncn([C@@H]2O[C@H](CO)[C@@H](O)[C@H]2O)n1 [Compound 1, 1-β-D-ribofuranosyl-3-carbamoyl-1,2,4-triazole, reference compound] | – | – | – | – | – | – | 0 | – | 0 | 43 | 94 | 100 | 100 | 100 | 28 |
| NC(=O)c1ncn([C@@H]2O[C@H](COC(=O)CCC(=O)O)[C@H]3OC(=O)O[C@H]32)n1 [Compound 5, 1-[β-D-(5'-succinyl-2',3'-carbonyl)ribofuranosyl]-3-carbamoyl-1,2,4,-triazole] | – | – | – | – | – | – | 0 | – | 0 | 0 | 0 | 0 | 0 | 0 | 17 |
